Experimental data reported in the NIST ThermoML archive (doi:10.1016/j.jct.2007.01.012).
± gives the expanded uncertainty stated by the source.

Conditions: 101.33 kPa, Liquid

CCn1cc[n+](C)c1.COCCOCCOS(=O)(=O)[O-] [1-ethyl-3-methylimidazolium 2-(2-methoxyethoxy) ethylsulfate]
mass density (298.15 K): 1236.5 ± 2.9 kg/m3
mass density (303.15 K): 1232.6 ± 2.9 kg/m3
mass density (313.15 K): 1225.6 ± 2.8 kg/m3

CO [methanol]
mass density (298.15 K): 786.7 ± 1.4 kg/m3
mass density (303.15 K): 782 ± 1.4 kg/m3
mass density (313.15 K): 772.7 ± 1.4 kg/m3
